Patent publication US7816353B2 (Exelixis, Inc., priority 2003, dated 2010)

Experiments:
Type in all cases: biochemical
[1] = target: T1, p70S6K (Homo sapiens, UniProt P23443, T412E); assay: p70S6 Kinase Assay (Luciferase-Coupled Chemiluminescent Kinase assay, LCCA); details: human p70S6 kinase domain residues 1-421, T412E; 5 μM ATP; read-out: p70S6K IC50
T1 construct: human p70S6 kinase domain residues 1-421, containing a T412E mutation; made in house
How it was run: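 Luciferase-coupled chemiluminescence measured percent ATP remaining after the 2 h kinase reaction at ambient temperature, with ATP near the kinase's KM. Ten inhibitor concentrations were tested. IC50 was obtained from a Hill-equation fit.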

[2] = target: T2, Akt1 (Homo sapiens, UniProt P31749); assay: Akt1 Kinase Assay (Luciferase-Coupled Chemiluminescent Kinase assay, LCCA); details: human Akt1 kinase domain residues R144-A480, activated with PDK1; 1 μM ATP; read-out: Akt-1 IC50
T2 construct: made in house
T2 sequence (P31749 144-480): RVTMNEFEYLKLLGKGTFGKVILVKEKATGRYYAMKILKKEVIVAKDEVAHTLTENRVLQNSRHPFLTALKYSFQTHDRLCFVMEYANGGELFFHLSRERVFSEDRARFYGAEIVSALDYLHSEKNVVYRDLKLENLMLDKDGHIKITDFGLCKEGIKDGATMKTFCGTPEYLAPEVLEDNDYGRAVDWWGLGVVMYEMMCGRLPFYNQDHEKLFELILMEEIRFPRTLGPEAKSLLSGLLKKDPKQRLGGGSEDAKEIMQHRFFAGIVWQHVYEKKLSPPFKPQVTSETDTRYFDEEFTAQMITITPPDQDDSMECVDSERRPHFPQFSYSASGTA
Protocol: (§1) Kinase activity and compound inhibition are investigated using one or more of the three assay formats described below. The ATP concentrations for each assay are selected to be close to the Michaelis-Menten constant (KM) for each individual kinase. Dose-response experiments are performed at 10 different inhibitor concentrations in a 384-well plate format. The data are fitted to four-parameter equation (2) below; where Y is the observed signal, X is the inhibitor concentration, Min is the background signal in the absence of enzyme (0% enzyme activity), Max is the signal in the absence of inhibitor (100% enzyme activity), IC50 is the inhibitor concentration at 50% enzyme inhibition and H represents the empirical Hill's slope to measure the cooperativity. Typically H is close to unity. Y=Min+(Max−Min)/(1+(X/IC50)^H) Equation (2) p70S6 Kinase Assay
Biochemical activity of Akt1 kinase was assessed using a Luciferase-Coupled Chemiluminescent Kinase assay (LCCA) format. Kinase activity was measured as the percent ATP remaining following the kinase reaction. Remaining ATP was detected by luciferase-luciferin-coupled chemiluminescence. Specifically, the reaction was initiated by mixing test compounds, 1 μM ATP, 5 μM crosstide peptide and 1.3 nM Akt1 (baculovirus expressed human Akt1 kinase domain residues R144-A480, activated with PDK1) in a 20 uL assay buffer (20 mM Tris-HCL pH 7.5, 10 mM MgCl2, 0.01% Triton X-100, 1 mM DTT, 3 mM MnCl2). The mixture is incubated at ambient temperature for 3 hours after which 20 μL luciferase-luciferin mix is added and the chemiluminescent signal read using a Wallac Victor2 reader. The luciferase-luciferin mix consists of 50 mM HEPES, pH 7.8, 8.5 μg/mL oxalic acid (pH 7.8), 5 (or 50) mM DTT, 0.4% Triton X-100, 0.25 mg/mL coenzyme A, 63 uM AMP, 28 μg/mL luciferin and 40,000 units/mL luciferase.

[3] = target: T3, PDK1 (Homo sapiens, UniProt O15530); assay: PDK1 Kinase Assay (Luciferase-Coupled Chemiluminescent Kinase assay, LCCA); details: human PDK1 kinase domain residues M51-T359; 0.5 μM ATP; read-out: PDK-1 IC50
T3 construct: human PDK1 kinase domain residues M51-T359; made in house
T3 sequence (O15530 51-359): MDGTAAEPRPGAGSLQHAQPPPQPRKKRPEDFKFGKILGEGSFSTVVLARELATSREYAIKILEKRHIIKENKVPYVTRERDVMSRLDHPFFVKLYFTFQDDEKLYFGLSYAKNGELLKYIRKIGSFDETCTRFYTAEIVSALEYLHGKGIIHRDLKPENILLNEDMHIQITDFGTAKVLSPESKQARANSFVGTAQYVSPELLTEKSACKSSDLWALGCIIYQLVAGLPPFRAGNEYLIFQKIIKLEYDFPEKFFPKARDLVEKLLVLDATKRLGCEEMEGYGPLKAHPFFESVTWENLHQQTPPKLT
Protocol: as §1
Biochemical activity of PDK1 kinase was assessed using a Luciferase-Coupled Chemiluminescent Kinase assay (LCCA) format. Kinase activity was measured as the percent ATP remaining following the kinase reaction. Remaining ATP was detected by luciferase-luciferin-coupled chemiluminescence. Specifically, the reaction was initiated by mixing test compounds, 0.5 μM ATP, 0.6 μM PDKtide peptide and 6 nM PDK1 (baculovirus expressed human PDK1 kinase domain residues M51-T359) in a 20 uL assay buffer (20 mM Hepes pH 7.5, 1 mM CaCl2, 0.03% CHAPS, 2 mM DTT). The mixture is incubated at ambient temperature for 3 hours after which 20 μL luciferase-luciferin mix is added and the chemiluminescent signal read using a Wallac Victor2 reader. The luciferase-luciferin mix consists of 50 mM HEPES, pH 7.8, 8.5 μg/mL oxalic acid (pH 7.8), 5 (or 50) mM DTT, 0.4% Triton X-100, 0.25 mg/mL coenzyme A, 63 uM AMP, 28 μg/mL luciferin and 40,000 units/mL luciferase.

T1 sequence (P23443 1-421 T412E): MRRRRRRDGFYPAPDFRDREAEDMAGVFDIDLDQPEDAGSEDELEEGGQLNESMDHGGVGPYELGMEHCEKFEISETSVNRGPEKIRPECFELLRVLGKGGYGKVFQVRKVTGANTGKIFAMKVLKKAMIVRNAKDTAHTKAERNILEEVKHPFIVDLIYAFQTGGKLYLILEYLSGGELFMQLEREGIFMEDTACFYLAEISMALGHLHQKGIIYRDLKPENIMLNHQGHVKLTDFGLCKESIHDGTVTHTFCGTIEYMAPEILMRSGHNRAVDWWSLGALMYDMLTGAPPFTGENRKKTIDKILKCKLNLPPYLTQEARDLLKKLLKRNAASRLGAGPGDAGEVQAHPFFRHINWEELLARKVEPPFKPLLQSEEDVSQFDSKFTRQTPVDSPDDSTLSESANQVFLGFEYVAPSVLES

IC50 [1] | IC50 [2] | IC50 [3] | Compound
< 50 nM | > 2000 nM | > 2000 nM | Nc1cc(SCC(=O)Nc2cccc(C(F)(F)F)c2)nc(N)n1 [Example 33, 2-[(2,6-diaminopyrimidin-4-yl)thio]-N-[3-(trifluoromethyl)phenyl]acetamide]
< 50 nM | > 2000 nM | > 2000 nM | CSc1nc(N)nc(SCC(=O)Nc2ccc(Cl)c(C(F)(F)F)c2)c1C#N [Example 34, 2-{[2-amino-5-cyano-6-(methylthio)pyrimidin-4-yl]thio}-N-[4-chloro-3-(trifluoromethyl)phenyl]acetamide]
50 to 500 nM | > 2000 nM | > 2000 nM | COc1nc(N)nc(NNC(=O)Nc2cccc(C(F)(F)F)c2)c1C#N [Example 140, 2-[2-amino-5-cyano-6-(methyloxy)pyrimidin-4-yl]-N-[3-(trifluoromethyl)phenyl]hydrazinecarboxamide]
< 50 nM | > 2000 nM | > 2000 nM | CSc1nc(N)nc(N(C)[C@@H](C)C(=O)Nc2cc(C(=O)NCCN(C)C)cc(C(F)(F)F)c2)c1C#N [Example 130, 3-({N-[2-amino5-cyano-6-(methylthio)pyrimidin-4-yl]-N-methyl-L-alanyl}amino)-N-[2-(dimethylamino)ethyl]-5-(trifluoromethyl)benzamide]
< 50 nM | > 2000 nM | > 2000 nM | COc1ccc(OC)c(C(=O)CSc2nc(N)nc(SC)c2C#N)c1 [Example 30, 2-amino-4-({2-[2,5-bis(methyloxy)phenyl]-2-oxoethyl}thio)-6-(methylthio)pyrimidine-5-carbonitrile]
< 50 nM | > 2000 nM | > 2000 nM | Cc1nc(OCC(=O)Nc2cccc(C(F)(F)F)c2)c(C#N)c(C)c1[N+](=O)[O-] [Example 1, 2-[(3-cyano-4,6-dimethyl-5-nitropyridin-2-yl)oxy]-N-[3-(trifluoromethyl)phenyl]acetamide]
< 50 nM | > 2000 nM | > 2000 nM | CSc1nc(N)nc(SCC(=O)n2nc(C)cc2C)c1C#N [Example 26, 2-amino-4-{[2-(3,5-dimethyl-1H-pyrazol-1-yl)-2-oxoethyl]thio}-6-(methylthio)pyrimidine-5-carbonitrile]
< 50 nM | > 2000 nM | > 2000 nM | CSc1nc(N)nc(SCC(=O)Nc2cccc(C(F)(F)F)c2)c1C#N [Example 21, 2-{[2-amino-5-cyano-6-(methylthio)pyrimidin-4-yl]thio}-N-[3-(trifluoromethyl)phenyl]acetamide]
< 50 nM | > 2000 nM | > 2000 nM | CSc1cc(NCC(=O)Nc2cccc(C(F)(F)F)c2)nc(N)n1 [Example 5]
> 2000 nM | > 2000 nM | > 2000 nM | CCOc1nc(N)nc(N[C@@H](CCCN)C(=O)Nc2cccc(C(F)(F)F)c2)c1C#N [Example 129, N^2-[2-amino-5-cyano-6-(ethyloxy)pyrimidin-4-yl]-N-[3-(trifluoromethyl)phenyl]-L-ornithinamide]
< 50 nM | > 2000 nM | > 2000 nM | CSc1nc(COC(=O)Nc2cccc(C(F)(F)F)c2)cc(NCc2ccccc2)n1 [Example 40, {2-(methylthio)-6-[(phenylmethyl)amino]pyrimidin-4-yl}methyl [3-(trifluoromethyl)phenyl]carbamate]
< 50 nM | > 2000 nM | > 2000 nM | CSc1nc(N)nc(SCC(=O)Nc2ccc(C(F)(F)F)cn2)c1C#N [Example 4]
< 50 nM | > 2000 nM | > 2000 nM | CCOC(=O)c1sc(NC(=O)CSc2nc(N)nc(SC)c2C#N)c(C#N)c1C [Example 28, ethyl 5-[({[2-amino-5-cyano-6-(methylthio)pyrimidin-4-yl]thio}acetyl)amino]-4-cyano-3-methylthiophene-2-carboxylate]
< 50 nM | > 2000 nM | > 2000 nM | CSc1nc(N)nc(SCC(=O)Nc2nccs2)c1C#N [Example 27, 2-{[2-amino-5-cyano-6-(methylthio)pyrimidin-4-yl]thio}-N-1,3-thiazol-2-ylacetamide]
< 50 nM | > 2000 nM | > 2000 nM | CNc1cc(COC(=O)Nc2cccc(C(F)(F)F)c2)nc(SC)n1 [Example 39, [6-(methylamino)-2-(methylthio)pyrimidin-4-yl]methyl [3-(trifluoromethyl)phenyl]carbamate]
